What was measured:
[1] = test system: neurogenic bladder, unstable bladder, and nervous pollakisuria; settings: Nishinihon J. Urol., 54, 1472 and 1820 (1992); cited from earlier work
[2] = test system: exploratory behavior; assay: Inhibitory effect on exploratory behavior; type: in vivo, Male Std-Wistar rats; settings: 500 mg/kg p.o., rat; for Inhibitory rate, exploratory behavior: one hour after administration
Procedure: Inhibitory effect on exploratory behavior
Male Std-Wistar rats weighing 150-200 g were used in groups of 5 animals. One hour after oral administration of test compounds suspended in 0.5% aqueous tragacanth solution, animals were individually placed in a test cage (23×35×30 cm) on an Animex activity meter (Farad Co., Sweden). Immediately thereafter, locomotor counting was started and lasted for three minutes. The mean value of the exploratory behavior (count/3 minutes) in the test compound-treated groups were determined, and then inhibitory effect of each test compound was calculated as compared with that of the control group (0.5% aqueous tragacanth solution-treated group). The results are shown in Table 5 along with the results of Experiments 4 and 5.

[3] = test system: polysynaptic spinal reflex; assay: Inhibitory effect on polysynaptic spinal reflex; type: in vivo, Male Std-Wistar rats; settings: rat; for ED50: iv, read-out: Inhibitory effect on polysynaptic spinal reflex, ID50; for Inhibitory effect on spinal reflex compared with Compound A: i.v.
Procedure: Inhibitory effect on polysynaptic spinal reflex
The experiment was performed according to the method of Itoh, et al. [Japan J. Parmacol.,23, 1125 (1982)]. Male Std-Wistar rats weighing 250-350 g were used in groups of 4-6 animals. Under anesthesia with combined i.p. injection of urethane (400 mg/kg) and α-chloralose (50 mg/kg), the rat fixed in a stereotaxic apparatus was clamped at the spine and tibial bane. A concentric needle electrode was inserted into the left gastrocnemius muscle, and the central end of the ipsilateral common peroneal nerve at the same side was supramaximally stimulated by an electrical stimulator (rectangular pulse,0.1 msec,0.1 Hz). Test compounds dissolved in distilled water were injected via a cannula inserted into the right femoral vein, and the evoked electromyogram was periodically recorded (2, 5, 10, 20 and 30 minutes after the injection). […] The results are shown in Table 5 along with the results of Experiments 3 and 5.

[4] = test system: bladder contractions induced by stimulation of the pelvic nerve, peripheral cut end; assay: Effect on the bladder contractions induced by stimulation of the pelvic nerve (peripheral cut end); type: in vivo, Male Std-Wistar rats; settings: 5 mg/kg i.v. (jugular vein), mean±SEM; for Inhibitory rate on the contraction caused by the stimulation of the peripheral cut end, 10 min. / Inhibitory rate on the contraction caused by the stimulation of the peripheral cut end, 20 min.: * p<0.05
Description: (§1) Effect on the bladder contractions induced by stimulation of the pelvic nerve
(§2) Male Std-Wistar rats weighing 250-350 g were used. Under urethane anesthesia (1 g/kg, i.p.), both ureters were tied and cut at the side of kidney after a mid line incision of the abdomen. When the peripheral end of the pelvic nerve was stimulated, one side of the pelvic nerve was cut. When the central cut end of the nerve was stimulated, one side of the pelvic nerve was cut like in the peripheral end stimulation after both the hypogastric nerves were cut. Then, the bladder was exposed, the cannula connected to a syringe and a pressure transducer was inserted into the bladder via a small incision at an apex of the dome, and the proximal urethra was then ligated. Fifteen minutes after the operation, warm saline solution of an amount (0.1-0.2 ml) being small enough not to cause rhythmic contraction was infused into the bladder using a syringe. The change of the intravesical pressure was recorded on a recorder via a pressure transducer. The pelvic nerve was stimulated at the peripheral cut end or the central one by a pair of platinum electrodes with pulse of 1 msec duration, 3 v strength and a frequency of 10 Hz (for peripheral) or 5 v strength and a frequency of 20 Hz (for central), for 5 seconds every 2 minutes. Test compounds dissolved in distilled water were injected at a dose of 5 mg/kg via the cannula inserted into the jugular vein.
(§3) Each value in the table is mean±standard error of mean in 3-4 animals.

[5] = test system: rhythmic bladder contractions (micturition reflex); assay: Inhibitory effect on rhythmic bladder contractions (micturition reflex); type: in vivo, Female Std-Wistar rats; settings: i.d., rat; for ED50: 2 h, two hours, read-out: ED50, inhibitory effect on contractile frequency; for Potency on frequency of rhythmic bladder contractions relative to inaperisone hydrochloride (Compound A): compared with Compound A
Procedure: Inhibitory effect on rhythmic bladder contractions (micturition reflex)
The experiment was carried out according to the method of Maggi, C. […] It is generally accepted that the rhythmic bladder contractions evoked by instillation of saline solution into the bladder are mediated via the micturition reflex pathway like that of natural urination.
Female Std-Wistar rats weighing 160-190 g were used in groups of 3-4 animals. Under urethane anesthesia (1 g/kg, s.c.), both ureters were tied and cut at the side of kidney after a mid line incision of the abdomen. A cannula, connected to a syringe and a pressure transducer, was inserted into the bladder via the external urethral orifice and ligated around the proximal urethra. The animal was allowed to stay for about 30 minutes after the operation. The bladder was slowly filled with warm saline solution (0.4-1 ml) by means of a syringe until rhythmic contractions were induced. The change of the intravesical pressure was recorded on a recorder via a pressure transducer. After the rhythmic contractions became constant, test compounds dissolved or suspended in 0.5% aqueous tragacanth solution were administered via the cannula inserted for intraduodenal administration. The effect of each compound on the contractile frequency was investigated every 15 minutes till two hours after the administration.
The inhibitory rate on the contractile frequency (two hours) was expressed as the mean value of the inhibitory rates at an every 15-minute interval for two hours after the administration, which was determined based on the contractile frequency for 15 minutes before the administration.

[6] = test system: bladder contractions induced by stimulation of the pelvic nerve, central cut end; assay: Effect on the bladder contractions induced by stimulation of the pelvic nerve (central cut end); type: in vivo, Male Std-Wistar rats; settings: for Inhibitory rate on the contraction caused by the stimulation of the central cut end, 2 min. / Inhibitory rate on the contraction caused by the stimulation of the central cut end, 4 min. / Inhibitory rate on the contraction caused by the stimulation of the central cut end, 10 min. / Inhibitory rate on the contraction caused by the stimulation of the central cut end, 20 min.: 5 mg/kg i.v. (jugular vein), mean±SEM; for Inhibitory rate on the contraction caused by the stimulation of the central cut end, 2 min.: * p<0.05; for Inhibitory rate on the contraction caused by the stimulation of the central cut end, 4 min. / Inhibitory rate on the contraction caused by the stimulation of the central cut end, 20 min.: * p<0.05, ** <0.01; for Inhibitory rate on the contraction caused by the stimulation of the central cut end, 10 min.: ** <0.01; for Effect on contractions by stimulation of central cut end compared with peripheral cut end: 5 mg/kg i.v., rat
Description: as §1, §2, §3

[7] = in vivo; settings: in vivo, po; mouse; 7 days; read-out: Acute toxicity LD50
Description: (§4) Male ddY mice weighing 18-25 g were used in groups of 5-15 animals. Test compounds suspended in 0.5% aqueous tragacanth solution were given orally, and the mortality was investigated for 7 days following administration.

[8] = test system: Male ddY mice; assay: in vivo; settings: p.o.; mouse
Description: as §4

[9] = test system: rhythmic bladder contractions (micturition reflex); assay: Inhibitory effect on rhythmic bladder contractions (micturition reflex); type: in vivo, Female Std-Wistar rats; settings: judged from Experiments 1, 3, 4 and 5
[10] = test system: dopamine receptor; settings: in vitro; cited from earlier work

Row | Structure (SMILES) | Inhibitory rate, exploratory behavior [2] [%] | ED50 [3] [mg/kg] | Inhibitory rate on the contraction caused by the stimulation of the peripheral cut end, 2 min. [4] [%] | Inhibitory rate on the contraction caused by the stimulation of the peripheral cut end, 4 min. [4] [%] | Inhibitory rate on the contraction caused by the stimulation of the peripheral cut end, 10 min. [4] [%] | Inhibitory rate on the contraction caused by the stimulation of the peripheral cut end, 20 min. [4] [%] | ED50 [5] [mg/kg] | Inhibitory rate on the contraction caused by the stimulation of the central cut end, 2 min. [6] [%] | Inhibitory rate on the contraction caused by the stimulation of the central cut end, 4 min. [6] [%] | Inhibitory rate on the contraction caused by the stimulation of the central cut end, 10 min. [6] [%] | Inhibitory rate on the contraction caused by the stimulation of the central cut end, 20 min. [6] [%] | LD50 at 168 h [7] [mg/kg] | Acute toxicity compared with Compound A [8] | Inhibitory effect on exploratory behavior compared with Compound A [2] | Inhibitory effect on spinal reflex compared with Compound A [3] | Potency on frequency of rhythmic bladder contractions relative to inaperisone hydrochloride (Compound A) [5] | Separation of effect on micturition reflex from side effects (central depression, inhibition of spinal reflex) and toxicity, in comparison with Compound A [9] | Effect on contractions by stimulation of central cut end compared with peripheral cut end [6] | further results
1 | CCc1ccc(C(=O)C(C)CN2CCCC2)cc1.Cl (centres unmarked) [Compound A, 1-(4-ethylphenyl)-2-methyl-3-(1-pyrrolidinyl)-1-propanone hydrochloride, reference compound] | 28.3 | 4.22 | 6.2 ± 5.1 | 14.7 ± 4.0 | 25.1 ± 4.2 | 31.6 ± 2.5 | 34.8 | 21.0 ± 10.7 | 22.5 ± 7.3 | 29.3 ± 7.7 | 40.6 ± 8.8 |  |  |  |  |  |  |  | Efficacy for neurogenic bladder, unstable bladder, nervous pollakisuria [1]: effective for the symptoms such as neurogenic bladder, unstable bladder, and nervous pollakisuria
2 | Cc1cc2c(cc1C)CCC(CCN1CCCC1)=C2 [Ex. 2, 1-[2-(3,4-dihydro-6,7-dimethyl-2-naphthalenyl)ethyl]-pyrrolidine] | 0 | > 8 | 0.4 ± 5.2 | 16.3 ± 7.0 | 13.7 ± 4.5 | 19.0 ± 7.5 | 4.4 | 13.3 ± 5.1 | 17.7 ± 2.8 | 25.6 ± 3.7 | 24.9 ± 4.1 | 620 | also lower than that of Compound A | less potent than that of Compound A | much weaker than that of Compound A | about 8 times more potent | extremely separated from side effects | more potent than those on the contractions induced by the stimulation of peripheral cut end | Effect on the amplitude of contraction [5]: suppressed the amplitude of contraction
3 | Fc1cccc2c1CCC(CCN1CCCC1)=C2 [Ex. 1, 1-[2-(5-fluoro-3,4-dihydro-2-naphthalenyl)ethyl]-pyrrolidine] | 16.2 | > 10 | 4.4 ± 4.4 | 3.4 ± 4.4 | 3.2 ± 7.5 | 9.6 ± 8.6 | 4.3 | 26.3 ± 10.0 | 27.6 ± 5.6 | 36.8 ± 10.1 | 44.1 ± 5.8 | 556 | also lower than that of Compound A | less potent than that of Compound A | much weaker than that of Compound A | about 8 times more potent | extremely separated from side effects | more potent than those on the contractions induced by the stimulation of peripheral cut end | 
4 | C1=C(CCN2CCCCC2)CCc2ccccc21.Cl [1-[2-(3,4-dihydro-2-naphthalenyl)ethyl]piperidine hydrochloride] |  |  |  |  |  |  |  |  |  |  |  |  |  |  |  |  |  |  | Affinity for dopamine receptor [10]: quite low affinity
5 | Cc1cc2c(cc1C)CCC(CCN1CCCCC1)=C2 [Ex. 43, 1-[2-(3,4-dihydro-6,7-dimethyl-2-naphthalenyl)ethyl]piperidine] | 20.0 | 3.82 | 2.4 ± 3.3 | 5.8 ± 6.3 | 6.3 ± 8.1 | 17.2 ± 12.2 | 11.1 | 6.0 ± 10.8 | 22.8 ± 9.7 | 28.3 ± 4.0 | 37.3 ± 5.0 | 1040 | about twice lower than that of Compound A | almost equal to that of Compound A | nearly equal to that of Compound A | ~3 times more potent | extremely separated from side effects | more potent than those on the contractions induced by the stimulation of peripheral cut end | 
